Measurements taken from patent publication US7914785B2, “B-cell depleting agents, like anti-CD20 antibodies or fragments thereof for the treatment of chronic fatigue syndrome” (Bergen Teknologieverforing AS, priority 2009, dated 2011).

Tests used:
[1] = tested on: CFS symptoms in patients with chronic fatigue syndrome; assay: Pilot treatment of three CFS patients with Rituximab infusions and weekly oral Methotrexate; type: in vivo, human; settings: pilot patient 1, weekly oral low-dose 7.5 to 12.5 mg per week; for clinical response on CFS symptoms: used for 22 weeks
Text: The symptom score of CFS symptoms which is in a range of 0 to 10 wherein 0 means no symptoms while 10 refers to very severe symptoms of CFS.
Methotrexat (Mtx) is a therapeutic agent with known (but not well understood) immunomodulatory properties.

[2] = tested on: B-cells in rheumatoid arthritis patients; settings: given orally on a weekly schedule for rheumatoid arthritis; cited from earlier work
CFS patients = settings: 99 CFS patients; cited from earlier work
[3] = tested on: patients with long-standing fatigue; settings: 12 patients treated; cited from earlier work
patients with CFS = settings: six patients with CFS; cited from earlier work

Molecule: CN(Cc1cnc2nc(N)nc(N)c2n1)c1ccc(C(=O)N[C@@H](CCC(=O)O)C(=O)O)cc1 [Methotrexate]
- start of CFS symptom recovery after onset of weekly treatment [1]: 10 weeks
- clinical response on CFS symptoms [1]: significant and moderate clinical response on CFS symptoms
- clinical response on CFS symptoms ([1]; listed as Mtx): gradual and moderate CFS symptom recovery
- start of CFS symptom recovery after onset of weekly treatment ([1]; listed as Mtx): 12 weeks
- B-cell depletion [2]: moderate B-cell depletion

Molecule: CC[C@H]1OC(=O)[C@H](C)[C@@H](O[C@H]2C[C@@](C)(OC)[C@@H](O)[C@H](C)O2)[C@H](C)[C@@H](O[C@@H]2O[C@H](C)C[C@H](N(C)C)[C@H]2O)[C@](C)(O)C[C@@H](C)CN(C)[C@H](C)[C@@H](O)[C@]1(C)O [azithromycin]
- CFS patients with improvement (CFS patients): 59%

Molecule: CC(C)[C@H](N)C(=O)OCC(CO)OCn1cnc2c(=O)nc(N)[nH]c21 (some centres unmarked) [valganciclovir]
- patients with improvement of the symptoms [3]: nine

Molecule: etanercept
- clinical outcome (patients with CFS): clinical benefit
